From EP0303243A2, “Use of atrial natriuretic factor (ANF), fragments and analogues thereof, for the treatment of cardiac disorders” (HOECHST AKTIENGESELLSCHAFT, priority 1987, dated 1989)
Non-standard residues stand in square brackets, D forms with d. Residues, ends and D or L forms follow the SMILES beside them.

Tested on: isolierten arbeitenden Rattenherzen
Experiment: Isolated working rat heart (Langendorff) with coronary occlusion (ischaemia) and reperfusion
Design: species or system Ratten
Details: 10^-7 mol/l; for Myokardiale Gewebsspiegel von ATP / Myokardiale Gewebsspiegel von Glykogen / Myokardiale Gewebsspiegel von KP / Myokardiale Gewebsspiegel von Laktat: ischaemic hearts perfused for 65 Minuten; for KK / LDH / Laktat: coronary venous effluent
Description: Die erfindungsgemäßen Verbindungen verbessern arrhythmische Zustände, die Hämodynamik und den Stoffwechsel des Herzens. Ihre Wirkung wurde an Ratten im Test nach Langendorff geprüft (0. Langendorff "Untersuchungen am überlebenden Säugetierherzen", Pflügers Archiv […], Bd. 61, 291 - 332; H. Bardenheuer, J. Schrader "Relationships between myocardial oxygen consumption, coronary flow and adenosin release in an improved isolated working heart preparation of guinea pigs", Circulation Research, 1983, Bd. 51, 263 - 271
Die Koronargefäße der isolierten arbeitenden Rattenherzen wurden retrograd über die Aorta mit Krebs-Henseleit-Lösung perfundiert. In den linken Ventrikel wurde ein Ballon verbracht, der mit einem künstlichen "systemischen" Kreislauf verbunden war. Die Druck-Volumenarbeit wurde erreicht, indem aus dem Ballon in den systemischen Kreislauf Kochsalzlösung gepumpt wurde. Die Herzen wurden mit einem Druck von 65 mmHg perfundiert, die Nachlast betrug ebenfalls 65 mmHg und die Vorlast 7,4 mmHg. In einer Kontrollperfusionsperiode wurden die Herzen über 20 Minuten perfundiert. Danach wurde die linke Koronararterie in der Nähe ihres Austritts aus der Aorta mit einem Clip verschlossen. Nach 15 Minuten (ischämische Periode) wurde der Verschluß geöffnet und es schloß sich eine 30 minütige Reperfusionsphase an. Während dieses experimentellen Zeitverlaufs untersuchten wir die Effekte des ANF auf kardiodynamische Parameter, wie linker Ventrikeldruck (LVD), dp/dt max, Herzfrequenz (HF), Koronarfluß (KorF), myokardialer Sauerstoffverbrauch (MSV), auf Enzyme im koronarvenösen Effluat wie Laktat dehydrogenase (LDH) und Kreatinkinase (KK) sowie Laktat, auf metabolische Parameter im Myokard wie Laktat, Glykogen, Adenosintriphosphat (ATP) und Kreatinphosphat (KP) und auf Reperfusionsarrhythmien mittels EKG.
Eine Substanz wird dann als wirksam bezeichnet, wenn nach dem Abklemmen der linken Herzkoronararterie und anschließender Reperfusion keine Arrhythmien - im Vergleich zur unbehandelten Kontrolle - entstehen, wobei das Kammerflimmern (KF) einen meßbaren Parameter darstellt.
Die erfindungsgemäßen Verbindungen wurden in den entsprechenden Konzentrationen vor und nach Okklusion der linken Koronararterie perfundiert (n:10); (n:4). Kontrollherzen wurden mit Krebs-Henseleit-Lösung perfundiert (n:10).

| Compound | Myokardiale Gewebsspiegel von ATP | Myokardiale Gewebsspiegel von Glykogen | Myokardiale Gewebsspiegel von KP | Myokardiale Gewebsspiegel von Laktat | HF (Ischämische Periode) [Schläge/Min] | KorF (Ischämische Periode) | LVD (Ischämische Periode) | LVdp/dtmax (Ischämische Periode) | HF (Kontrollperfusionsperiode) [Schläge/Min] | KorF (Kontrollperfusionsperiode) | LVD (Kontrollperfusionsperiode) | LVdp/dtmax (Kontrollperfusionsperiode) | HF (Reperfusionsperiode) [Schläge/Min] | KorF (Reperfusionsperiode) | LVD (Reperfusionsperiode) | LVdp/dtmax (Reperfusionsperiode) | KK (Ischämische Periode) | LDH (Ischämische Periode) | Laktat (Ischämische Periode) | KK (Kontrollperfusionsperiode) [mU/min/g] | other results |
| --- | --- | --- | --- | --- | --- | --- | --- | --- | --- | --- | --- | --- | --- | --- | --- | --- | --- | --- | --- | --- | --- |
| CC[C@H](C)[C@@H]1NC(=O)[C@H](CCCNC(=N)N)NC(=O)[C@@H](CC(C)C)NC(=O)[C@H]([C@@H](C)CC)NC(=O)[C@@H](CCCNC(=N)N)NC1=O [cyclo-(D-Arg-Ile-D-Leu-Arg-Ile)] (cyclo(I[dL]RI[dR])) | * 13,25 ± 0,41 µmol/g Trockengewicht | * 121,09 ± 2,97 µmol/g Trockengewicht | * 15,22 ± 0,83 µmol/g Trockengewicht | * 3,87 ± 0,46 µmol/g Trockengewicht | 299 ± 7 | * 8,7 ± 0,4 ml/Min/g | * 49 ± 4 mmHg | * 1784 ± 109 mmHg • sec^-1 | 306 ± 7 | 12,3 ± 0,8 ml/Min/g | 68 ± 3 mmHg | 2589 ± 101 mmHg • sec^-1 | 284 ± 10 | * 12,9 ± 0,9 ml/Min/g | 48 ± 6 mmHg | 1724 ± 111 mmHg • sec^-1 | * 32 ± 5 mU/min/g | * 22 ± 4 mU/min/g | * 0,24 ± 0,03 µmol/min/g | 32 ± 4 | LDH (Kontrollperfusionsperiode): 29 ± 5 mU/min/g; Laktat (Kontrollperfusionsperiode): * 0,18 ± 0,04 µmol/min/g; KK (Reperfusionsperiode): * 20 ± 4 mU/min/g; LDH (Reperfusionsperiode): * 14 ± 3 mU/min/g; Laktat (Reperfusionsperiode): * 0,16 ± 0,05 µmol/min/g |
| human ANF-(103-126) [h-ANF(103-126)] | * 11,01 ± 0,59 µmol/g Trockengewicht | * 113,15 ± 3,74 µmol/g Trockengewicht | * 13,89 ± 0,99 µmol/g Trockengewicht | * 4,03 ± 0,62 µmol/g Trockengewicht | 301 ± 5 | * 9,0 ± 0,2 ml/Min/g | * 45 ± 3 mmHg | * 1663 ± 117 mmHg • sec^-1 | 298 ± 4 | 11,1 ± 0,2 ml/Min/g | * 55 ± 2 mmHg | * 2125 ± 91 mmHg • sec^-1 | 280 ± 4 | * 11,7 ± 0,3 ml/Min/g | * 37 ± 2 mmHg | * 1385 ± 91 mmHg • sec^-1 | * 30 ± 2 mU/min/g | * 20 ± 2 mU/min/g | * 0,18 ± 0,01 µmol/min/g | 28 ± 3 | MSV (Ischämische Periode): * 11,5 ± 0,3 ml/min/100 g; MSV (Kontrollperfusionsperiode): * 14,5 ± 0,3 ml/min/100 g; MSV (Reperfusionsperiode): 14,7 ± 0,4 ml/min/100 g; LDH (Kontrollperfusionsperiode): 21 ± 2 mU/min/g; Laktat (Kontrollperfusionsperiode): * 0,13 ± 0,01 µmol/min/g; KK (Reperfusionsperiode): * 18 ± 2 mU/min/g; LDH (Reperfusionsperiode): * 12 ± 1 mU/min/g; Laktat (Reperfusionsperiode): * 0,12 ± 0,04 µmol/min/g; KF (ventricular fibrillation (Kammerflimmern), Reperfusionsperiode): * 2,7 ± 0,9 Min |
